Patent US9580758B2, “System and method for the detection and treatment of infection by a microbial agent associated with HIV infection” (priority 2013, dated 2017)

Tested on: Rickettsiales-like agent
Assay type: cell-based

## O=C(N[C@H](CO)[C@H](O)c1ccc([N+](=O)[O-])cc1)C(Cl)Cl [chloramphenicol]
  sensitivity of the 400 bp sequence (grown with the Rickettsiales-like agent) to treatment in vitro: sensitive
